Measured values reported in ChEMBL document CHEMBL4433214, “Investigation around the Oxadiazole Core in the Discovery of a New Chemotype of Potent and Selective FXR Antagonists” (ACS Med Chem Lett, 2019).
Calls of active or inactive are those of the source. The calls are words filed in the database; no cut-off is given here.

Assays:
[1] = biological target: T1, Bile acid receptor (Homo sapiens) (UniProt Q96RI1); assay: Antagonist activity at human FXR in HepG2 cells assessed as reversal of CDCA-induced increase in OSTalpha mRNA expression level at 0.1 to 1 uM dosed after 24 hrs starvation followed by CDCA addition and measured after 18 hrs by RT-PCR analysis
T1 sequence (whole entry): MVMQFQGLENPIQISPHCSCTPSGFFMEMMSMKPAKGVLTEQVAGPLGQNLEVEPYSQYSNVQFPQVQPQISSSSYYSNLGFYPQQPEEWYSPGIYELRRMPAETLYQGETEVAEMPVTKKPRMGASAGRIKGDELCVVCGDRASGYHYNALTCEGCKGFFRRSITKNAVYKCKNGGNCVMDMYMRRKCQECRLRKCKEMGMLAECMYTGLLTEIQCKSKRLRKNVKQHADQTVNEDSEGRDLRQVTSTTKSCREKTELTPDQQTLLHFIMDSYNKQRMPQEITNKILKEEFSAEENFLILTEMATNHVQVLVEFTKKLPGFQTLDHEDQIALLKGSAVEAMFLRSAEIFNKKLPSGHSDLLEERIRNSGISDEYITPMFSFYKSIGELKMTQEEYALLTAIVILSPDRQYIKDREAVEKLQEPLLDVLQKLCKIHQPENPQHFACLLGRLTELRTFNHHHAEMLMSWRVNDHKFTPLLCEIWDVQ

[2] = biological target: T2, Peroxisome proliferator-activated receptor gamma (Homo sapiens) (UniProt P37231); assay: Agonist activity at human PPARgamma transfected in HepG2 at 10 uM by luciferase reporter assay; assay type: cell-based
T2 sequence (whole entry): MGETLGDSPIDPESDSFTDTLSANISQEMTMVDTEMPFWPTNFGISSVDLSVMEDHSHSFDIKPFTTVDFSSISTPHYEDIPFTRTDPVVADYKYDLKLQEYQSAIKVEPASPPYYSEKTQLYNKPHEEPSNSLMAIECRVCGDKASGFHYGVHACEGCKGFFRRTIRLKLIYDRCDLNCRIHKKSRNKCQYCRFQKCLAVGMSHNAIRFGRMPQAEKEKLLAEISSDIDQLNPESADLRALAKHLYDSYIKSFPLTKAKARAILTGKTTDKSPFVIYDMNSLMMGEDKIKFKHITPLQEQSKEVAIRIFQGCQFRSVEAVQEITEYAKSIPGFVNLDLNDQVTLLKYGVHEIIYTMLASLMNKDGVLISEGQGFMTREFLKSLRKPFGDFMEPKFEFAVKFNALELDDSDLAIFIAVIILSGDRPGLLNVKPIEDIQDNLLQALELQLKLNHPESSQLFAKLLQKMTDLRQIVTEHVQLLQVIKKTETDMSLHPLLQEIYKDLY

[3] = biological target: T1, Bile acid receptor (Homo sapiens); assay: Transactivation of human FXR transfected in HepG2 cells at 10 uM by luciferase reporter assay; assay type: cell-based
[4] = biological target: T3, Oxysterols receptor LXR-beta (Homo sapiens) (UniProt P55055); assay: Antagonist activity at human LXRbeta transfected in HepG2 at 5 uM in presence of LXRbeta agonist GW3965 by luciferase reporter assay; assay type: cell-based
T3 sequence (whole entry): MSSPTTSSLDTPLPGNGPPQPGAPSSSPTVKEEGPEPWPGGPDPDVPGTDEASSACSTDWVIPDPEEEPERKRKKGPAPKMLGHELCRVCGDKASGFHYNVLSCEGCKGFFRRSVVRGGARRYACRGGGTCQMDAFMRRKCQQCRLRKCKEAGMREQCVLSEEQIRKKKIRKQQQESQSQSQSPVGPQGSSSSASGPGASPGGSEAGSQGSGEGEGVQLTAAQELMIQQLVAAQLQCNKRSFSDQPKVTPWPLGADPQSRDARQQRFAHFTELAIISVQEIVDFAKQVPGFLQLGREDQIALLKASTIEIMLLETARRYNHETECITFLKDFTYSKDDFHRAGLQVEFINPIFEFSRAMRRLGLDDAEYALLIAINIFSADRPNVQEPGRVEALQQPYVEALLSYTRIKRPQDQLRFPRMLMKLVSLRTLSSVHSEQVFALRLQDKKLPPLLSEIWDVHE

[5] = biological target: T1, Bile acid receptor (Homo sapiens); assay: Antagonist activity at human FXR in HepG2 cells assessed as reversal of CDCA-induced increase in SHP mRNA expression level at 0.1 to 1 uM dosed after 24 hrs starvation followed by CDCA addition and measured after 18 hrs by RT-PCR analysis
[6] = biological target: T1, Bile acid receptor (Homo sapiens); assay: Antagonist activity at human FXR assessed as reduction in CDCA-induced FXR-SRC-1 recruitment at 500 to 1000 nM incubated for 30 mins by alpha screen assay
[7] = biological target: T4, Oxysterols receptor LXR-alpha (Homo sapiens) (UniProt Q13133); assay: Antagonist activity at human LXRalpha transfected in HepG2 at 5 uM in presence of LXRalpha agonist GW3965 by luciferase reporter assay; assay type: cell-based
T4 sequence (whole entry): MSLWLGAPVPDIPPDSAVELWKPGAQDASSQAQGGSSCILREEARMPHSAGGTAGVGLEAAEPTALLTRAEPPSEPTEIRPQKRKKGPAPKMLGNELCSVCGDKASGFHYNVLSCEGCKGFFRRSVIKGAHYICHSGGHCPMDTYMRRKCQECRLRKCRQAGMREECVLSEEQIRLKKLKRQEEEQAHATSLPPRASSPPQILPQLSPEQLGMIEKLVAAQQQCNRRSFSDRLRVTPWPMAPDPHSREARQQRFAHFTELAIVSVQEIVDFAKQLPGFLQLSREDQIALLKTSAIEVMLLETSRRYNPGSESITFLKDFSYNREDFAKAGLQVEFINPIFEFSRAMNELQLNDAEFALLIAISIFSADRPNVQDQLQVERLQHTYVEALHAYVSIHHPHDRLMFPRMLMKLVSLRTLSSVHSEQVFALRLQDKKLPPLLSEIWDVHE

[8] = Intrinsic clearance in rat liver microsomes at 1 uM incubated for 2 hrs by LC-MS/MS analysis; details: read-out: CLH
[9] = Half life in rat liver microsomes at 1 uM incubated for 2 hrs by LC-MS/MS analysis
[10] = Metabolic stability in rat liver microsomes assessed as parent compound remaining at 1 uM measured after 40 mins by LC-MS/MS analysis
[11] = biological target: T4, Oxysterols receptor LXR-alpha (Homo sapiens); assay: Agonist activity at human LXRalpha transfected in HepG2 at 10 uM by luciferase reporter assay; assay type: cell-based
[12] = biological target: T1, Bile acid receptor (Homo sapiens); assay: Antagonist activity at human FXR in HepG2 cells assessed as reversal of CDCA-induced reduction in CYP7A1 mRNA expression level at 0.1 to 1 uM dosed after 24 hrs starvation followed by CDCA addition and measured after 18 hrs by RT-PCR analysis
[13] = biological target: T3, Oxysterols receptor LXR-beta (Homo sapiens); assay: Agonist activity at human LXRbeta transfected in HepG2 at 10 uM by luciferase reporter assay; assay type: cell-based

Activity [1]: Active
Activity [2]: inactive
Activity [3]: inactive
Activity [4]: inactive
Activity [5]: Active
inhibition [6]: Active
Activity [7]: inactive
microsomal CLint at 1 µM [8]: 20.7 µL/min/mg
half-life at 1 µM [9]: 112 min
remaining at 40 min, 1 µM [10]: 76.2%
Activity [11]: inactive
Activity [12]: Active
Activity [13]: inactive
Compound: c1ccc2cc(-c3noc(C4CCNCC4)n3)ccc2c1
